Data: US20160271258A1, “Dual Peptide-Mediated Targeted Delivery System” (MUSC FOUNDATION FOR RESEARCH DEVELOPMENT, priority 2015, published 2016)
Entries after “also recorded” stand apart in the source; their conditions may differ. Where no end group is shown, it is not given here. [ ]: non-standard residue; d: D form.

Key:
[1] = tested on: CAL 27 (high EGFR) and SCC-15 (low EGFR) oral cancer cells; assay: Fluorescence microscopy of DY547-siCIP2A uptake in co-culture of high- and low-EGFR oral cancer cells; type: cell-based, human; conditions: co-culture CAL 27 and SCC-15, 4 hours, 100 nM D-siCIP2A
Procedure: (§1) Fluorescence microscopy analysis was performed after co-culture of CAL 27 (high EGFR) and SCC-15 (low EGFR) oral cancer cells incubated for 4 hours with 100 nM of DY547-conjugated siRNA targeting CIP2A (D-siCIP2A; red) in complex with GE11R9 peptide at 100:1 and 60:1 (GE11R9:siRNA) molar ratios. SCC-15 cells were stained for vimentin (green) and nuclei (blue) were counterstained with DAPI.
as §1, with “of the” for “was performed after”, “and 599 peptides” for “peptide”, “various” for “100:1 and 60:1 (GE11R9:siRNA)”, “ratios (FIGS. 3A & 3B).” for “ratios.”, “DAPI” for “DAPI.”

[2] = tested on: CIP2A; assay: Western blot analysis of CIP2A protein expression levels in CAL 27 OSCC cells; type: cell-based, human; conditions: CAL 27 cells, 48 hours post-treatment, 100 nM siCIP2A vs siNT
Procedure: Western blot analysis of CIP2A protein expression levels in CAL 27 OSCC cells was performed 48 hours post-treatment with GE11R9 peptide complexed to either 100 nM of siNT or siCIP2A at a 60:1 or 100:1 peptide-to-siRNA molar ratio compared to 599 peptide at a 50:1 molar ratio. β-Actin protein levels were monitored to ensure equal loading of samples.
FIG. 4 is a Western blot analysis of CIP2A protein expression levels in CAL 27 OSCC cells performed 48 hours post-treatment with dual peptide complexed to either 100 nM of siNT or siCIP2A at various GE11R9:599:siRNA molar ratios. β-Actin protein levels were monitored to ensure equal loading of samples.

For “GE11R9: EGFR-targeting peptide: GE11 sequence modified with a nona(D-arginine) stretch (R9) and a C-terminal Lysine (YHWYGYTPQNVIGGGG[dR][dR][dR][dR][dR][dR][dR][dR][dR]K)”, the “targeting / specific uptake of siRNA into high-EGFR versus low-EGFR cells” value [1] was “deliver siRNAs specifically to EGFR-overexpressing oral cancer cells; also recorded: specifically targets” and the “delivery of bioactive siRNA (siCIP2A functionality, CIP2A protein expression)” value [2] was “not capable of mediating the delivery of bioactive siRNAs; also recorded: does not deliver bioactive siRNAs; also recorded: not able to mediate the delivery of bioactive siRNAs”.
